Results reported in patent US20110039762A1, “TARGETED ANTIMICROBIAL MOIETIES” (C3 JIAN, INC., priority 2009, published 2011).
Entries after “also recorded” stand apart in the source; their conditions may differ.

Test system: microorganisms (e.g., bacteria, yeasts, fungi)
Experiment: Targeting peptide binding to target microorganisms (Table 3)
Conditions: microorganism the targeting peptide binds; binding in aqueous buffers varied by peptide solubility, preferably 1x PBS

Substance: 1T-3 (VLGIAGGLDAYGELVGGN; Peptide with targeting and/or antimicrobial activity) [Peptide 1T-3]
- Target(s): S. mutans; also recorded: S. gordonii

Substance: 1T-4 (LDAYGELVGGN; Peptide with targeting and/or antimicrobial activity) [Peptide 1T-4]
- Target(s): S. gordonii; also recorded: S. sanguinis; also recorded: S. oralis; also recorded: V. atypica; also recorded: L. casei; also recorded: S. mutans

Substance: 1T-6 (KFINGVLSQFVLERK; Peptide with targeting and/or antimicrobial activity) [Peptide 1T-6]
- Target(s): S. mutans

Substance: 1T-7 (SQRIIEPVKSPQPYPGFSVS; Peptide with targeting and/or antimicrobial activity) [Peptide 1T-7]
- Target(s): M. xanthus

Substance: 1T-8 (FSVAACGEQRAVTFVLLIEDLI; Peptide with targeting and/or antimicrobial activity) [Peptide 1T-8]
- Target(s): M. xanthus

Substance: 1T-9 (WAWAESPRCVSTRSNIHALAFRVEVAALT; Peptide with targeting and/or antimicrobial activity) [Peptide 1T-9]
- Target(s): M. xanthus

Substance: 1T-10 (SPAGLPGDGDEA; Peptide with targeting and/or antimicrobial activity) [Peptide 1T-10]
- Target(s): M. xanthus

Substance: 1T-11 (RISE; Peptide with targeting and/or antimicrobial activity) [Peptide 1T-11]
- Target(s): S. mutans; also recorded: S. epidermidis; also recorded: P. aeruginosa

Substance: 1T-12 (FGNIFKGLKDVIETIVKWTAAK; Peptide with targeting and/or antimicrobial activity) [Peptide 1T-12]
- Target(s): C. xerosis; also recorded: C. striatum; also recorded: S. epidermidis; also recorded: S. mutans

Substance: 1T-13 (FRSPCINNNSLQPPGVYPAR; Peptide with targeting and/or antimicrobial activity) [Peptide 1T-13]
- Target(s): S. aureus; also recorded: S. epidermidis; also recorded: P. aeruginosa

Substance: 1T-14 (ALAGLAGLISGK; Peptide with targeting and/or antimicrobial activity) [Peptide 1T-14]
- Target(s): S. mutans; also recorded: S. aureus; also recorded: S. epidermidis; also recorded: C. xerosis

Substance: 1T-15 (DVILRVEAQ; Peptide with targeting and/or antimicrobial activity) [Peptide 1T-15]
- Target(s): S. mutans

Substance: 1T-16 (IDMR; Peptide with targeting and/or antimicrobial activity) [Peptide 1T-16]
- Target(s): P. aeruginosa

Substance: 1T-17 (NNAIVYIS; Peptide with targeting and/or antimicrobial activity) [Peptide 1T-17]
- Target(s): S. mutans

Substance: 1T-18 (YSKTLHFAD; Peptide with targeting and/or antimicrobial activity) [Peptide 1T-18]
- Target(s): S. aureus; also recorded: S. epidermidis; also recorded: C. striatum; also recorded: P. aeruginosa

Substance: 1T-19 (PGAFRNPQMPRG; Peptide with targeting and/or antimicrobial activity) [Peptide 1T-19]
- Target(s): S. aureus; also recorded: S. epidermidis; also recorded: P. aeruginosa

Substance: 1T-20 (PALVDLSNKEAVWAVLDDHS; Peptide with targeting and/or antimicrobial activity) [Peptide 1T-20]
- Target(s): S. mutans; also recorded: P. aeruginosa

Substance: 1T-21 (YVEEAVRAALKKEARISTEDTPVNLPSFDC; Peptide with targeting and/or antimicrobial activity) [Peptide 1T-21]
- Target(s): S. mutans; also recorded: P. aeruginosa

Substance: 1T-22 (VPLDDGTRRPEVARNRDKDRED; Peptide with targeting and/or antimicrobial activity) [Peptide 1T-22]
- Target(s): S. epidermidis; also recorded: P. aeruginosa

Substance: 1T-23 (PALVDLSNKEAVWAVLDDHS; Peptide with targeting and/or antimicrobial activity) [Peptide 1T-23]
- Target(s): S. mutans; also recorded: P. aeruginosa

Substance: 1T-24 (EEAEEKLAEVSQAVKRLVR; Peptide with targeting and/or antimicrobial activity) [Peptide 1T-24]
- Target(s): P. aeruginosa

Substance: 1T-25 (VGLDVSVLVLFFGLQLLSVLLGAMIR; Peptide with targeting and/or antimicrobial activity) [Peptide 1T-25]
- Target(s): S. aureus; also recorded: S. epidermidis; also recorded: C. xerosis; also recorded: C. striatum; also recorded: P. aeruginosa

Substance: 1T-26 (LTILPTTFFAIIVPILAVAFIAYSGFKIKGIVEHKDQW; Peptide with targeting and/or antimicrobial activity) [Peptide 1T-26]
- Target(s): S. mutans; also recorded: S. aureus; also recorded: S. epidermidis; also recorded: C. jeikeium; also recorded: C. xerosis; also recorded: C. striatum; also recorded: P. aeruginosa

Substance: 1T-27 (ALFVSLEQFLVVVAKSVFALCHSGTLS; Peptide with targeting and/or antimicrobial activity) [Peptide 1T-27]
- Target(s): S. mutans; also recorded: S. aureus; also recorded: S. epidermidis; also recorded: C. jeikeium; also recorded: C. xerosis; also recorded: C. striatum; also recorded: P. aeruginosa

Substance: 1T-28 (VSRDEAMEFIDREWTTLQPAGKSHA; Peptide with targeting and/or antimicrobial activity) [Peptide 1T-28]
- Target(s): P. aeruginosa

Substance: 1T-29 (GSVIKKRRKRMSKKKHRKMLRRTRVQRRKLGK; Peptide with targeting and/or antimicrobial activity) [Peptide 1T-29]
- Target(s): S. epidermidis; also recorded: C. jeikeium; also recorded: C. xerosis; also recorded: C. striatum; also recorded: P. aeruginosa; also recorded: S. mutans; also recorded: S. aureus

Substance: 1T-30 (GKAKPYQVRQVLRAVDKLETRRKKGGR; Peptide with targeting and/or antimicrobial activity) [Peptide 1T-30]
- Target(s): S. aureus; also recorded: S. epidermidis; also recorded: C. xerosis; also recorded: C. striatum; also recorded: P. aeruginosa

Substance: 1T-31 (NATGTDIGEVTLTLGRFS; Peptide with targeting and/or antimicrobial activity) [Peptide 1T-31]
- Target(s): S. mutans; also recorded: P. aeruginosa

Substance: 1T-32 (VSFLAGWLCLGLAAWRLGNA; Peptide with targeting and/or antimicrobial activity) [Peptide 1T-32]
- Target(s): S. mutans

Substance: 1T-33 (VRTLTILVIFIFNYLKSISYKLKQPFENNLAQSMISI; Peptide with targeting and/or antimicrobial activity) [Peptide 1T-33]
- Target(s): S. aureus; also recorded: S. epidermidis; also recorded: C. jeikeium; also recorded: C. xerosis; also recorded: C. striatum; also recorded: P. aeruginosa

Substance: 1T-34 (AFWLNILLTLLGYIPGIVHAVYIIAKR; Peptide with targeting and/or antimicrobial activity) [Peptide 1T-34]
- Target(s): S. aureus; also recorded: S. epidermidis; also recorded: C. jeikeium; also recorded: C. xerosis; also recorded: C. striatum; also recorded: P. aeruginosa

Substance: 1T-35 (EICLTLVFPIRGSYSEAAKFPVPIHIVEDGTVELPK; Peptide with targeting and/or antimicrobial activity) [Peptide 1T-35]
- Target(s): P. aeruginosa
